How the values were obtained:
Type in all cases: physicochemical
[1] = Scale-up preparation of Form C with DVS
Description: Approximately 300 mg of Form A was weighed into a 4 mL glass vial and 2.5 mL of MeCN was added slowly to make a slurry. The sample vial was kept at 50° C. with stirring for 3 days. After 3 days, slurry material was isolated and dried at 40° C. with a N2 bleed.

[2] = Solution stability studies at accelerated conditions, counterion adduct (Impurity A); conditions: fumarate reacts with the pyrimidine ring; in solution and solid API
Source text: Compound A monocitrate monohydrate has at least two advantageously and unexpected characteristics. […] Second, in the manufacturing process, Compound A fumarate requires a separate slurrying step which results in a solvate with an organic solvent. Compound A monocitrate monohydrate salt is isolated directly from ethanol:water, no slurrying step is required. […] Additionally, the Compound A monocitrate forms a monohydrate instead of a solvate with one or more organic molecules.
Although this degradation pathway is more accelerated in solution it was also observed in the solid API. Formation of Impurity A was the reason why Compound A sesquifumarate API and drug product were stored at refrigerated temperatures.

[3] = Aqueous solubility of Compound A salts
Description: Solubility of Compound A citrate was determined in 3 different types of matrices: unbuffered water, citrate-buffered solutions from pH 3 to 6, and formulations consisting of citrate, advantame, methylparaben sodium, potassium sorbate, and sodium chloride at pH ranging from 3 to 6. Solubility in unbuffered water at ambient temperature was 38.5 mg/mL.
The target pH was reassessed when the F3 formulation was developed. Compound A citrate solubility studies were performed initially in simple buffered solutions to assess solubility trends as a function of pH. […] The target concentration of Compound A was therefore changed to 40 mg/mL as a compromise between drug substance and preservatives dissolution rate and stability.

[4] = Solution stability of Compound A sesquifumarate at 25° C. and 40° C.; conditions: for Appearance / Compound A Sesquifumarate Purity (Average % area) / Impurity A (Average % area) / pH: 50 mg/mL formulation
Description: The initial F1 and F2 formulations utilized Compound A sesquifumarate. The pH stability of Compound A sesquifumarate solutions was studied in water at pH 5.0, 5.5, and 6.0 over 4 weeks at 25° C. and 40° C. The desired concentration of 50 mg/mL was soluble at all pH values, although Compound A dissolution occurred more rapidly at lower pH. There was a single major degradant, designated as Impurity A (relative retention time [RRT]˜0.98).
Stability of formulations containing Compound A sesquifumarate was studied at 50 mg/mL in a formulation consisting of 0.07% advantame, 20 mM citrate, 1% grape flavor (FONA), 1% sodium chloride, and 0.02% propyl paraben at pH 6.5. Stability was measured over 4 weeks in glass vials at the accelerated condition of 25° C. Stability of the same formulation but at […] was also studied at the supra-accelerated condition of 40° C. These studies were conducted prior to preservative effectiveness testing and therefore used propyl paraben instead of the methylparaben sodium:potassium sorbate combination used in the final formulation.

[5] = Excipient compatibility study with Compound A sesquifumarate; conditions: for Change in appearance, XRPD or DSC: 8 weeks 25° C./60% RH or 4 weeks 40° C./75% RH
Source text: The first activity in developing a tablet formulation was selection of excipients. The main purpose of the excipient compatibility study was to evaluate changes in related substances, specifically Impurity A (relative retention time [RRT]˜0.98). […] However, formation of this degradant is not possible in product containing Compound A citrate, as it is formed by reaction of the sesquifumarate drug substance with the double bond in fumaric acid. A secondary purpose of the compatibility study was to assess changes in Compound A assay and physical properties. Even though formation of Impurity A is not possible for Compound A citrate, chemical and physical results of this study were still used to guide tablet excipient selection.
Common excipients were evaluated as part of the excipient compatibility study. Samples were incubated at 25° C./60% RH long-term condition as well as a 40° C./75% RH accelerated condition. Individual vials were removed for analysis at 0, 4, and 8 weeks. Samples were tested for appearance, Compound A sesquifumarate assay and related substances, X-ray powder diffraction (XRPD), and differential scanning calorimetry (DSC) at T-0 and 4 weeks for both long-term and accelerated conditions, and 8 weeks for the long-term condition. At 8 weeks, the accelerated condition samples were tested for Compound A sesquifumarate assay and related substances only. Assay and related substances were tested by reversed-phase ultra-performance liquid chromatography (RP-UPLC), with adjusted sample preparation to accommodate small sample amounts. Vials of Compound A sesquifumarate alone were used as controls.

[6] = Form C screening experiments
[7] = Exp. 1/5: reactive crystallization, material 166 mg, citric acid 51 mg, MeCN 1.0 mL, RT
[8] = Exp. 2/6: reactive crystallization, material 166 mg, citric acid 51 mg, EtOAc 1.0 mL, RT
[9] = Exp. 3/7: reactive crystallization, material 166 mg, citric acid 51 mg, MeCN 1.0 mL, 50 °C
[10] = Exp. 4/8: reactive crystallization, material 166 mg, citric acid 51 mg, EtOAc 1.0 mL, 50 °C

Q: Which “DVS (weight gain between 30%-80% RH)” value ([1]; 1st adsorption cycle) does the source give for `CC#N.CCN(C(=O)c1cc(F)ccc1Oc1cncnc1N1CC2(CCN(CC3CCC(NS(=O)(=O)CC)CC3)CC2)C1)C(C)C.O=C(O)CC(O)(CC(=O)O)C(=O)O` (stereo not shown) [Compound A citrate Form C] here?
A: Its value is 1.6%.

Q: And the “DVS (weight gain between 30%-80% RH)” value ([1]; 2nd adsorption cycle)?
A: Its value is 6.1%.

Q: And the “Post DVS form” value ([1]; after DVS)?
A: Its value is “changed to Form-A”.

Q: With `CCN(C(=O)c1cc(F)ccc1Oc1cncnc1N1CC2(CCN(C[C@H]3CC[C@H](NS(=O)(=O)CC)CC3)CC2)C1)C(C)C.CCN(C(=O)c1cc(F)ccc1Oc1cncnc1N1CC2(CCN(C[C@H]3CC[C@H](NS(=O)(=O)CC)CC3)CC2)C1)C(C)C.O=C(O)/C=C/C(=O)O.O=C(O)/C=C/C(=O)O.O=C(O)/C=C/C(=O)O` [Compound A sesquifumarate] as the compound, how does the “Chemical degradation forming impurity A” value [2] read?
A: The value was “subject to a chemical degradation”.

Q: What about the “Biopharmaceutical Classification System solubility definition” value [3] of the same compound?
A: The value was “highly soluble”.

Q: What about the pH of solution ([3]; 50 mg/mL Compound A solution in water) of the same compound?
A: Its pH of solution is “approximately 3.5”.

Q: And the Appearance ([4]; 25° C., 1 week)?
A: Its Appearance is “Clear”.

Q: What about the “Compound A Sesquifumarate Purity (Average % area)” value ([4]; 25° C., 1 week) of the same compound?
A: Its value is 99.77 % area.

Q: What about the “Impurity A (Average % area)” value ([4]; 25° C., 1 week) of the same compound?
A: The value was 0.14 % area.

Q: And the pH ([4]; 25° C., 1 week)?
A: Its pH is 6.6.

Q: And the Appearance ([4]; 25° C., 2 weeks)?
A: The Appearance was “Clear”.

Q: And the “Compound A Sesquifumarate Purity (Average % area)” value ([4]; 25° C., 2 weeks)?
A: The value was 99.78 % area.

Q: And the “Impurity A (Average % area)” value ([4]; 25° C., 2 weeks)?
A: Its value is 0.13 % area.

Q: And the pH ([4]; 25° C., 2 weeks)?
A: The pH was 6.6.

Q: And the Appearance ([4]; 25° C., 4 weeks)?
A: The Appearance was “Clear”.

Q: What about the “Compound A Sesquifumarate Purity (Average % area)” value ([4]; 25° C., 4 weeks) of the same compound?
A: The value was 99.78 % area.

Q: What about the “Impurity A (Average % area)” value ([4]; 25° C., 4 weeks) of the same compound?
A: Its value is 0.14 % area.

Q: What about the pH ([4]; 25° C., 4 weeks) of the same compound?
A: The pH was 6.6.

Q: What about the Appearance ([4]; 25° C., time 0) of the same compound?
A: The Appearance was “Clear”.

Q: What about the “Compound A Sesquifumarate Purity (Average % area)” value ([4]; 25° C., time 0) of the same compound?
A: The value was 99.78 % area.

Q: What about the “Impurity A (Average % area)” value ([4]; 25° C., time 0) of the same compound?
A: Its value is 0.14 % area.

Q: What about the pH ([4]; 25° C., time 0) of the same compound?
A: Its pH is 6.5.

Q: And the Appearance ([4]; 40° C., 1 week)?
A: Its Appearance is “Clear”.

Q: What about the “Compound A Sesquifumarate Purity (Average % area)” value ([4]; 40° C., 1 week) of the same compound?
A: The value was 99.75 % area.

Q: What about the “Impurity A (Average % area)” value ([4]; 40° C., 1 week) of the same compound?
A: Its value is 0.17 % area.

Q: And the pH ([4]; 40° C., 1 week)?
A: Its pH is 6.2.

Q: What about the Appearance ([4]; 40° C., 2 weeks) of the same compound?
A: Its Appearance is “Clear”.

Q: And the “Compound A Sesquifumarate Purity (Average % area)” value ([4]; 40° C., 2 weeks)?
A: Its value is 99.68 % area.

Q: And the “Impurity A (Average % area)” value ([4]; 40° C., 2 weeks)?
A: The value was 0.24 % area.

Q: What about the pH ([4]; 40° C., 2 weeks) of the same compound?
A: The pH was 6.2.

Q: And the Appearance ([4]; 40° C., 4 weeks)?
A: Its Appearance is “Clear”.

Q: What about the “Compound A Sesquifumarate Purity (Average % area)” value ([4]; 40° C., 4 weeks) of the same compound?
A: Its value is 99.58 % area.

Q: And the “Impurity A (Average % area)” value ([4]; 40° C., 4 weeks)?
A: Its value is 0.34 % area.

Q: What about the pH ([4]; 40° C., 4 weeks) of the same compound?
A: Its pH is 6.3.

Q: What about the Appearance ([4]; 40° C., time 0) of the same compound?
A: The Appearance was “Clear”.

Q: And the “Compound A Sesquifumarate Purity (Average % area)” value ([4]; 40° C., time 0)?
A: Its value is 99.77 % area.

Q: And the “Impurity A (Average % area)” value ([4]; 40° C., time 0)?
A: Its value is 0.14 % area.

Q: What about the pH ([4]; 40° C., time 0) of the same compound?
A: The pH was 6.2.

Q: What about the “Impurity A formation” value ([4]; water at pH 5.0, 5.5, 6.0, 4 weeks, 25° C. and 40° C.) of the same compound?
A: The value was “increased in a temperature- and time-dependent manner”.

Q: What about the solubility ([4]; water at pH 5.0, 5.5 and 6.0) of the same compound?
A: Its solubility is at least 50 mg/mL.

Q: And the “Change in appearance, XRPD or DSC” value ([5]; binary mixtures with five fillers)?
A: Its value is “No change”.

Q: What about the “Impurity A” value ([5]; control sample and filler mixtures) of the same compound?
A: Its value is “increased in both control sample and excipient mixtures”.

Q: What about the “Trends in assay or related substances” value ([5]; four disintegrants) of the same compound?
A: The value was “No trends”.

Q: And the “Change in appearance, XRPD or DSC” value ([5]; four disintegrants)?
A: Its value is “No change”.

Q: What about the “Trends in assay or related substances” value ([5]; glidant and lubricants) of the same compound?
A: The value was “No trends”.

Q: What about the “Change in appearance, XRPD or DSC” value ([5]; glidant and lubricants) of the same compound?
A: The value was “No change”.

Q: What about the “Trends in assay or related substances” value ([5]; three binders) of the same compound?
A: The value was “No trends”.

Q: What about the “Change in appearance, XRPD or DSC” value ([5]; three binders) of the same compound?
A: Its value is “No change”.

Q: And the “Trends in assay or related substances” value ([5]; two alkalizers)?
A: The value was “No trends”.

Q: And the “Change in appearance, XRPD or DSC” value ([5]; two alkalizers)?
A: The value was “No change”.

Q: What about the “Impurity A formation” value ([5]; with Avicel PH 101, Avicel PH113, Avicel DG) of the same compound?
A: Its value is “did not increase formation of Impurity A”.

Q: What about the “Impurity A formation” value ([5]; with polyols mannitol and sorbitol) of the same compound?
A: The value was “accelerate the degradant formation”.

Q: With `CCN(C(=O)c1cc(F)ccc1Oc1cncnc1N1CC2(CCN(C[C@H]3CC[C@H](NS(=O)(=O)CC)CC3)CC2)C1)C(C)C` [FB-1] as the compound, how does the “Crystal Form” value [6, 7] read?
A: The value was “Form A, w/pattern shift”.

Q: What about the “Crystal Form” value [6, 8] of the same compound?
A: Its value is “FB-1 w/extra peaks”.

Q: And the “Crystal Form” value [6, 9]?
A: Its value is “Form A → Form C”.

Q: And the “Crystal Form” value [6, 10]?
A: The value was “Essentially Form C”.

Q: And the “Crystal Form” value ([6]; Exp. 11: slurry conditioning, 166 mg, no citric acid, MeCN 1.0 mL, 50 °C)?
A: Its value is “FB-1”.

Q: And the “Crystal Form” value ([6]; Exp. 12: slurry conditioning, 166 mg, no citric acid, EtOAc 1.0 mL, 50 °C)?
A: The value was “FB-1”.

Q: Which results are given for `CCN(C(=O)c1cc(F)ccc1Oc1cncnc1N1CC2(CCN(C[C@H]3CC[C@H](NS(=O)(=O)CC)CC3)CC2)C1)C(C)C` [FB-2]?
A: Crystal Form [6, 7]: Form A, w/pattern shift; Crystal Form [6, 8]: FB-2 w/extra peaks; Crystal Form [6, 9]: Form A → Form C; Crystal Form [6, 10]: Form A; Crystal Form ([6]; Exp. 9: slurry conditioning, 166 mg, no citric acid, MeCN 1.0 mL, RT): FB-2; Crystal Form ([6]; Exp. 10: slurry conditioning, 166 mg, no citric acid, EtOAc 1.0 mL, RT): FB-2; Crystal Form ([6]; Exp. 13: reactive crystallization, citric acid 15 mg, MeCN 0.5 mL, RT (Form C in MeCN; Hazy → FB + Acid)): Form C; Crystal Form ([6]; Exp. 14: reactive crystallization, citric acid 15 mg, MeCN 0.5 mL, RT (FB + Acid in MeCN → CL → Form C)): Form C; Crystal Form ([6]; Exp. 15: citric acid 30 mg, MeCN 0.5 + 1.5 mL, RT, 1:2 of FB:Acid): Form C
